Values joined by “and” are separate entries in the source; they are usually repeats but may differ in a detail not shown here. Equal values may be shown once. Toxic doses and inconclusive results are not listed. Rule for the calls: active = survival T/C of 150% or more; inactive = T/C below 125% in these data.
Test system: BDF1 mice, P288 methotrexate-resistant leukemia, survival T/C
Assay: NCI In Vivo Anticancer Drug Screen. Data for tumor model P288 Lymphocytic Leukemia resistant to methotrexate; NSC 740 (intraperitoneal) in B6D2F1 (BDF1) mice
Conditions: endpoint: median survival time, higher = longer survival
Procedure: The antitumor activity of compounds was measured in mice bearing transplantable tumors. Survival or tumor size were measured and the results are expressed as the measurement made in the treated group (T) divided by the measurement made in the vehicle treated control group (C). The tumor model used in this assay is P288 Lymphocytic Leukemia resistant to methotrexate; NSC 740 (intraperitoneal) in B6D2F1 (BDF1) mice

[1] = dose: 5.0 mg/kg/injection, schedule: Q01DX010 (ip), vehicle: saline
[2] = dose: 10.0 mg/kg/injection, schedule: Q01DX010 (ip), vehicle: saline
[3] = dose: 20.0 mg/kg/injection, schedule: Q01DX010 (ip), vehicle: saline
[4] = dose: 40.0 mg/kg/injection, schedule: Q01DX010 (ip), vehicle: saline
[5] = dose: 6.25 mg/kg/injection, schedule: Q01DX010 (ip), vehicle: saline
[6] = dose: 12.5 mg/kg/injection, schedule: Q01DX010 (ip), vehicle: saline
[7] = dose: 25.0 mg/kg/injection, schedule: Q01DX010 (ip), vehicle: saline
[8] = dose: 50.0 mg/kg/injection, schedule: Q01DX010 (ip), vehicle: saline
[9] = dose: 0.5 mg/kg/injection, schedule: Q01DX010 (ip), vehicle: saline
[10] = dose: 2.0 mg/kg/injection, schedule: Q01DX010 (ip), vehicle: saline
[11] = dose: 4.0 mg/kg/injection, schedule: Q01DX010 (ip), vehicle: saline
[12] = dose: 16.0 mg/kg/injection, schedule: Q01DX010 (ip), vehicle: saline
[13] = dose: 0.25 mg/kg/injection, schedule: Q01DX010 (ip), vehicle: saline
[14] = dose: 1.0 mg/kg/injection, schedule: Q01DX010 (ip), vehicle: saline
[15] = dose: 12.0 mg/kg/injection, schedule: Q01DX010 (ip), vehicle: saline
[16] = dose: 3.13 mg/kg/injection, schedule: Q01DX010 (ip), vehicle: saline
[17] = dose: 8.0 mg/kg/injection, schedule: Q01DX010 (ip), vehicle: saline
[18] = dose: 62.5 mg/kg/injection, schedule: Q01DX010 (ip), vehicle: saline
[19] = dose: 125.0 mg/kg/injection, schedule: Q01DX010 (ip), vehicle: saline
[20] = dose: 250.0 mg/kg/injection, schedule: Q01DX010 (ip), vehicle: saline
[21] = dose: 500.0 mg/kg/injection, schedule: Q01DX010 (ip), vehicle: saline
[22] = dose: 6.0 mg/kg/injection, schedule: Q01DX010 (ip), vehicle: saline
[23] = dose: 12.5 mg/kg/injection, schedule: Q01DX010 (sc), vehicle: steriod suspending solution
[24] = dose: 25.0 mg/kg/injection, schedule: Q01DX010 (sc), vehicle: steriod suspending solution
[25] = dose: 50.0 mg/kg/injection, schedule: Q01DX010 (sc), vehicle: steriod suspending solution
[26] = dose: 100.0 mg/kg/injection, schedule: Q01DX010 (sc), vehicle: steriod suspending solution
[27] = dose: 200.0 mg/kg/injection, schedule: Q01DX010 (ip), vehicle: saline

Measured: T/C

CN(C)c1ccc(/C=C/c2ccnc3ccccc23)cc1
inactive: [1] 104 % of control | [2] 90 % of control and 100 % of control | [3] 90 % of control and 100 % of control | [4] 90 % of control and 91 % of control

CS(=O)(=O)OCCCCOS(C)(=O)=O
inactive: [5] 87 % of control | [6] 106 % of control | [7] 93 % of control | [8] 87 % of control

NC(Cc1c[nH]c2ccc(N(CCCl)CCCl)cc12)C(=O)O (stereo not given)
inactive: [9] 104 % of control

C=CC(CN1CC1)OC(C)=O (stereo not given)
inactive: [10] 90 % of control and 95 % of control | [11] 100 % of control and 118 % of control | [12] 95 % of control and 100 % of control

Nc1nc2n[nH]nc2c(=O)[nH]1
inactive: dose: 25.0 mg/kg/injection, schedule: Q01DX010 (ip), vehicle: alkali diluted with saline 110 % of control | dose: 50.0 mg/kg/injection, schedule: Q01DX010 (ip), vehicle: alkali diluted with saline 112 % of control

CN(N=O)C(N)=O
inactive: [2] 110 % of control | [4] 95 % of control
active: [3] 150 % of control

C1CN1c1nc(N2CC2)nc(N2CC2)n1
inactive: dose: 0.13 mg/kg/injection, schedule: Q01DX010 (ip), vehicle: saline 90 % of control and 91 % of control | [13] 108 % of control and 110 % of control | [14] 90 % of control

CN(N=O)C(=O)NC(C=O)C(O)C(O)C(O)CO (stereo not given)
inactive: [6] 100 % of control | [7] 115 % of control | dose: 100.0 mg/kg/injection, schedule: Q01DX010 (ip), vehicle: saline 105 % of control

N=C(N)c1ccc(Nc2ccc(C(=N)N)cc2)cc1
inactive: [15] 90 % of control

Nc1ncnc2c1ccn2C1OC(CO)C(O)C1O (stereo not given)
inactive: [13] 100 % of control | [9] 100 % of control | [14] 118 % of control | [10] 100 % of control

C[C@@H]1C[C@@H]([C@H](O)CC2CC(=O)NC(=O)C2)C(=O)[C@@H](C)C1
inactive: [1] 93 % of control and 94 % of control | [2] 88 % of control and 100 % of control | [3] 100 % of control | [4] 111 % of control

CSc1ncnc2nc[nH]c12
inactive: [16] 91 % of control and 100 % of control | [5] 91 % of control and 96 % of control | [8] 90 % of control

C[C@H](N)C(=O)N[C@@H]1[C@H]2C(=C(O)C[C@@H](O)[C@@H]2O)C(=O)O[C@@H]1C
active: dose: 600.0 mg/kg/injection, schedule: Q01DX010 (ip), vehicle: saline 150 % of control | dose: 1200.0 mg/kg/injection, schedule: Q01DX010 (ip), vehicle: saline 183 % of control
inactive: dose: 150.0 mg/kg/injection, schedule: Q01DX010 (ip), vehicle: saline 112 % of control

Nc1nc(=S)c2ncn(C3OC(CO)C(O)C3O)c2[nH]1 (stereo not given)
inactive: [10] 90 % of control and 91 % of control and 115 % of control | [11] 91 % of control and 96 % of control and 120 % of control | [17] 93 % of control | [12] 90 % of control (2×) and 91 % of control

CC(=O)N(C)C
inactive: [18] 95 % of control and 120 % of control | [19] 90 % of control and 95 % of control | [20] 105 % of control and 110 % of control | [21] 110 % of control

O=c1[nH]cc(F)c(=O)[nH]1
active: [3] 159 % of control
inactive: [1] 108 % of control | [4] 91 % of control and 95 % of control

O=C(Nc1ccc(C2=NCCN2)cc1)c1ccc(C(=O)Nc2ccc(C3=NCCN3)cc2)c([N+](=O)[O-])c1
active: [22] 150 % of control | [17] 160 % of control and 172 % of control | [15] 238 % of control and 285 % of control | dose: 18.0 mg/kg/injection, schedule: Q01DX010 (ip), vehicle: saline 161 % of control and 165 % of control

S=P(N1CC1)(N1CC1)N1CC1
inactive: dose: 0.75 mg/kg/injection, schedule: Q01DX010 (ip), vehicle: saline 100 % of control and 111 % of control | dose: 1.5 mg/kg/injection, schedule: Q01DX010 (ip), vehicle: saline 111 % of control | [22] 116 % of control and 120 % of control

OCC1OC(n2cnc3c(Cl)ncnc32)C(O)C1O (stereo not given)
inactive: [18] 95 % of control and 100 % of control | [19] 90 % of control and 100 % of control | [20] 90 % of control and 105 % of control | [21] 90 % of control

CC/C(=C(/CC)c1ccc(O)cc1)c1ccc(O)cc1
inactive: [23] 100 % of control and 110 % of control | [24] 105 % of control | [25] 100 % of control and 105 % of control | [26] 90 % of control and 100 % of control

O=c1cn[nH]c(=O)[nH]1
inactive: [18] 90 % of control and 110 % of control | [19] 105 % of control and 110 % of control | [20] 105 % of control and 120 % of control | [21] 110 % of control and 120 % of control

O=NN(CCCl)C(=O)NCCCl
active: [5] 280 % of control and 300 % of control | [6] 180 % of control

[I][Hg][CH2]C1COC([CH2][Hg][I])CO1 (stereo not given)
inactive: dose: 1.56 mg/kg/injection, schedule: Q01DX010 (ip), vehicle: saline 86 % of control | [16] 95 % of control | [5] 100 % of control | [6] 100 % of control | [7] 87 % of control

NC(Cc1ccc(N(CCCl)CCCl)cc1)C(=O)O (stereo not given)
active: dose: 1.0 mg/kg/injection, schedule: Q01DX010 (ip), vehicle: other 160 % of control | dose: 2.0 mg/kg/injection, schedule: Q01DX010 (ip), vehicle: other 165 % of control | dose: 4.0 mg/kg/injection, schedule: Q01DX010 (ip), vehicle: other 215 % of control | [1] 160 % of control | [2] 186 % of control
inactive: [3] 105 % of control

CS(=O)(=O)OCC(O)C(O)COS(C)(=O)=O (stereo not given)
inactive: [27] 86 % of control | dose: 400.0 mg/kg/injection, schedule: Q01DX010 (ip), vehicle: saline 93 % of control | dose: 800.0 mg/kg/injection, schedule: Q01DX010 (ip), vehicle: saline 100 % of control

CN(C)CC(=O)c1ccc(O)c(O)c1
inactive: [27] 110 % of control and 113 % of control | dose: 300.0 mg/kg/injection, schedule: Q01DX010 (ip), vehicle: saline 120 % of control and 122 % of control | dose: 450.0 mg/kg/injection, schedule: Q01DX010 (ip), vehicle: saline 115 % of control and 118 % of control | dose: 675.0 mg/kg/injection, schedule: Q01DX010 (ip), vehicle: saline 122 % of control

N#C[C@@H]1C2C=CC(CC2)[C@H]1C#N
inactive: dose: 31.0 micrograms/kg/injection, schedule: Q01DX010 (ip), vehicle: saline 90 % of control | dose: 63.0 micrograms/kg/injection, schedule: Q01DX010 (ip), vehicle: saline 118 % of control | dose: 125.0 micrograms/kg/injection, schedule: Q01DX010 (ip), vehicle: saline 109 % of control | dose: 250.0 micrograms/kg/injection, schedule: Q01DX010 (ip), vehicle: saline 90 % of control

CCOC(N)=O
inactive: [19] 100 % of control | [20] 100 % of control | [21] 100 % of control | dose: 1000.0 mg/kg/injection, schedule: Q01DX010 (ip), vehicle: saline 87 % of control and 88 % of control

Cn1cnc([N+](=O)[O-])c1Sc1nc(N)nc2nc[nH]c12
inactive: dose: 2.5 mg/kg/injection, schedule: Q01DX010 (ip), vehicle: saline 109 % of control | [1] 90 % of control | [2] 109 % of control | [3] 109 % of control

Nc1nc(=S)c2[nH]cnc2[nH]1
inactive: dose: 1.25 mg/kg/injection, schedule: Q01DX010 (ip), vehicle: other 88 % of control and 118 % of control | dose: 2.5 mg/kg/injection, schedule: Q01DX010 (ip), vehicle: other 111 % of control and 112 % of control | dose: 5.0 mg/kg/injection, schedule: Q01DX010 (ip), vehicle: other 111 % of control

O=C(O)CCCc1ccc(N(CCCl)CCCl)cc1
inactive: [16] 90 % of control and 95 % of control | [5] 91 % of control and 100 % of control | [6] 115 % of control

CC(=O)O[C@]1(C(C)=O)CC[C@H]2[C@@H]3C[C@H](C)C4=CC(=O)C=C[C@]4(C)[C@@]3(F)[C@@H](O)C[C@@]21C
inactive: [23] 100 % of control | [24] 110 % of control | [25] 105 % of control | [26] 100 % of control

Cc1cc(N(CCCl)CCCl)ccc1N=Nc1ccccc1C(=O)O
inactive: [1] 104 % of control and 105 % of control | [2] 109 % of control and 110 % of control | [3] 115 % of control

CCOC(=O)c1[nH]c2ccccc2c1CN(CCCl)CCCl
inactive: [2] 96 % of control | [3] 111 % of control
